Test results published in patent US6756208B2, “Plasma glucosylceramide deficiency as risk factor for thrombosis and modulator of anticoagulant protein C” (priority 2001, dated 2004).
Entries after “also recorded” stand apart in the source; their conditions may differ. One block for each compound: values may come before it.

How the values were obtained:
APC:protein S [1] = experiment: Modified dilute prothrombin time clotting assay with glycolipid vesicles added to normal plasma; format: biochemical, human; conditions: for effect on APC:protein S anticoagulant response: 0-100 mg/ml; for anticoagulant response of plasma to APC:protein S (clotting time prolongation, modified PT assay): glycolipid vesicles added to normal plasma, APC plus protein S present; for effect on baseline clotting times: without APC or protein S added
Procedure: Anticoagulant response to APC:protein S. Modified dilute prothrombin time based assays were performed as previously described. Briefly, 7.5 μl of test plasma was mixed with fibrinogen (0.6 mg/ml final concentration) and APC (8.7 nM final) plus protein S (28 nM final) or buffer, and incubated 3 min at 37° C. (100 μl total volume). Clotting times were measured after addition of 50 μl of recombinant human tissue factor (Innovin from DADE, Miami, Fla.) diluted 1:40 in Tris (tris[hydroxymethyl] aminomethane)-buffered saline containing 0.5% bovine serum albumin (TBSA) and 30 mM CaCl2. Baseline clotting times without addition of APC:protein S were also determined. For studies of the effects of glycolipid vesicles or glucocerebrosidase treatment on clotting assays, a 1:64 dilution of Innovin was used in the presence or absence of APC and protein S. In the study of the effect of glucocerebrosidase, 13 nM APC and 42 nM protein S were employed.
Preparation of glycolipid vesicles. To prepare extruded glycolipid vesicles, dried glycolipids GlcCer, Gb3Cer, galactosylceramide (GalCer) (Sigma), and LacCer were suspended at 100 μg/ml in TBS at room temperature, vortexed 5 min, and passed through a 0.2 μm filter (Osmonics, Livermore, Calif.). Concentrations of glycolipids recovered after filtration were determined by HPLC analysis as described above.

factor Va [2] = target: T1, factor Va (Homo sapiens, UniProt P12259); experiment: Factor Va inactivation by APC/protein S with 1, 5 or 10% glycolipid in PC/PS vesicles (Example 7); format: biochemical; conditions: for enhancement of factor Va inactivation by APC/protein S: APC 0.16 nM, 5 min; for effect on factor Va inactivation by APC:protein S, glycolipid incorporated into PC/PS vesicles (overall statement): glycolipid content not specified
T1 construct: APC cleaves the heavy chain of factor Va at Arg506, and then Arg306, and perhaps Arg679
T1 sequence (P12259 29-737 limits assumed): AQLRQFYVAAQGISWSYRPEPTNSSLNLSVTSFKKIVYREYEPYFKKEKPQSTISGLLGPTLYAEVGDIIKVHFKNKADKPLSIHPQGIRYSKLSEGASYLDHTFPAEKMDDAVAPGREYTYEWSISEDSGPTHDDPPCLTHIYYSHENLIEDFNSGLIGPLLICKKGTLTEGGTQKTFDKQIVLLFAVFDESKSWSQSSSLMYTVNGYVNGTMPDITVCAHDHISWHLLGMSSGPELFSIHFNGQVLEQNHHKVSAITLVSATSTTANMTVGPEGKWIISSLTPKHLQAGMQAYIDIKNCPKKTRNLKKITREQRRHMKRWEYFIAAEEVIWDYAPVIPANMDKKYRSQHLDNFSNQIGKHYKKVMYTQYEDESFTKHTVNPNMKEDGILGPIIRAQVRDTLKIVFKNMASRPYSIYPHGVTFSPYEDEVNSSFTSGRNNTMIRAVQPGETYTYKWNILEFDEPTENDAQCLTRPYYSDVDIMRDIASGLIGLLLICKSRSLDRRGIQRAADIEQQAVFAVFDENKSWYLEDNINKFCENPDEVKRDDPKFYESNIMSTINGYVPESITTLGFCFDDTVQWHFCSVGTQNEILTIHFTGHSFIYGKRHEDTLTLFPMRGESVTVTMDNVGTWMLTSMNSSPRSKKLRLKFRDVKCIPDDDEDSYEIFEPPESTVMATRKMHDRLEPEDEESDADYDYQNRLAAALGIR
T1 sequence (P12259 1574-2224 limits assumed): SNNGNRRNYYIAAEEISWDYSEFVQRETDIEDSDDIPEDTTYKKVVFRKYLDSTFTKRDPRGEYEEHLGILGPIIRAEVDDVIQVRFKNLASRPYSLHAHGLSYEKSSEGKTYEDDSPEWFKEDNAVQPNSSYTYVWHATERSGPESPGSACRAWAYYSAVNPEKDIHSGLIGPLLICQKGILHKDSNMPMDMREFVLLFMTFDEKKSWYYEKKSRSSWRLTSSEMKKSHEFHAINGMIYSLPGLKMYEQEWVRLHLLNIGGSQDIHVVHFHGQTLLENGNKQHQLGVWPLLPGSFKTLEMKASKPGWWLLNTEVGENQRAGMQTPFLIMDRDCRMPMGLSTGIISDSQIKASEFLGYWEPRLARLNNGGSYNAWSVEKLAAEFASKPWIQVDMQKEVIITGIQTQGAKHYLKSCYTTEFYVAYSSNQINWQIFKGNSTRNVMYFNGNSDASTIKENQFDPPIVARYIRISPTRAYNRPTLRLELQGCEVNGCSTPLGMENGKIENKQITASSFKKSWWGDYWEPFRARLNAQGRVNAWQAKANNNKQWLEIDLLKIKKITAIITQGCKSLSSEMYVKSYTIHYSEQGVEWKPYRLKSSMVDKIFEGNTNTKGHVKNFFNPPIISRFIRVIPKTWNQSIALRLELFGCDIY
Procedure: FIGS. 6A-6E. Anticoagulant response of plasma to APC/protein S is enhanced by addition of glycolipids. Purified factor Va (1.5 nM) was incubated with APC (0.16 nM final)/protein S (18 nM final) and varying lipid vesicles to allow factor Va inactivation for five minutes and then the residual factor Va activity was determined using prothrombin time clotting assays.
Purified factor Va (1.5 nM) was incubated with APC (0.16 nM final)/protein S (18 nM final) and varying lipids vesicles to allow factor Va inactivation for 5 min., and then the residual factor Va activity was determined using prothrombin time clotting assays.

APC:protein S [3] = experiment: Factor Xa-1-stage clotting assays without addition of exogenous lipids; format: biochemical; conditions: presence versus absence of APC:protein S; data not shown
factor Va [4] = target: T1, factor Va; experiment: Factor Va inactivation assay with purified proteins (GlcCer vesicles and multicomponent PC/PS/GlcCer vesicles); format: biochemical
Procedure: Large unilamellar multicomponent vesicles were prepared generally as described. (27) Appropriate aliquots of PC, PS and GlcCer were mixed and dried under nitrogen. The lipid mixture was hydrated at a concentration of 6.25 mM lipid in TBS and freeze-thawed 10 times using liquid nitrogen, and the solution of vesicles was passed 15 times through a 0.2 μm filter (Millipore). Concentrations of glycolipid recovered after filtration were determined by HPLC analysis as described above. PC concentration was determined by an enzymatic […] method (Phospholipids B kit, Wako Chemical USA, Inc., Richmond, Va.).
Factor Va inactivation assay. To study the time course of factor Va inactivation by APC:protein S, mixtures containing GlcCer vesicles or control PC vesicles (21.5 μM) or buffer, APC (6 nM final), protein S (18 nM final), and factor Va (1.5 nM) with 5 mM CaCl2 were incubated at 37° C. Aliquots were withdrawn at various times and the reaction was quenched by adding ethylenediamine tetraacetic acid (EDTA) prior to determination of residual factor Va activity. […] The residual factor Va activity was quantitated using prothrombin time clotting assays and standard log-log calibration curves of clotting time versus factor Va concentration generated using purified factor Va and factor V deficient plasma. […]

[5] = 1% glycolipid in PC/PS vesicles
[6] = 10% glycolipid in PC/PS vesicles
[7] = 5% glycolipid in PC/PS vesicles

Compound: OC[C@H]1OC(O)[C@H](O)[C@@H](O)[C@@H]1O (stereo partly drawn) [D-Glc, reference compound]
effect on APC:protein S anticoagulant response (APC:protein S [1]; data not shown): Neither D-Glc alone nor ceramide alone (0-100 mg/ml) affected
anticoagulant response of plasma to APC:protein S (clotting time prolongation, modified PT assay) (APC:protein S [1]): neither D-Glc alone nor ceramide alone was anticoagulantly active

Compound: galactosylceramide [GalCer]
anticoagulant response of plasma to APC:protein S (clotting time prolongation, modified PT assay) (APC:protein S [1]): did not enhance APC:protein S action; also recorded: inactive
effect on baseline clotting times (APC:protein S [1]): no effect on baseline clotting times
enhancement of factor Va inactivation (factor Va [2]; above 10 μg/ml of total lipid, 5 and 10% glycolipid in PC/PS vesicles): enhanced factor Va inactivation by APC/protein C like GlcCer in PC/PS vesicle
effect on factor Va inactivation compared with GlcCer in PC/PS (factor Va [2]; below 10 μg/ml): not as well as GlcCer in PC/PS
effect on factor Va inactivation by APC:protein S, glycolipid incorporated into PC/PS vesicles (overall statement) (factor Va [2]): significantly directly enhance inactivation

Compound: ceramide [reference compound]
effect on APC:protein S anticoagulant response (APC:protein S [1]; data not shown): Neither D-Glc alone nor ceramide alone (0-100 mg/ml) affected
anticoagulant response of plasma to APC:protein S (clotting time prolongation, modified PT assay) (APC:protein S [1]): neither D-Glc alone nor ceramide alone was anticoagulantly active

The next lines start with results.

enhancement of factor Va inactivation by APC/protein S (factor Va [2]; [5]): little like GlcCer
factor Va inactivation reached (factor Va [2]; [6]): up to 90%
Compound: lactosylceramide [LacCer]
anticoagulant response of plasma to APC:protein S (clotting time prolongation, modified PT assay) (APC:protein S [1]): much lower activity; also recorded: does not possess this anticoagulant property
enhancement of factor Va inactivation by APC/protein S (factor Va [2]; [6]): dramatically enhanced factor Va inactivation
effect on factor Va inactivation by APC:protein S, glycolipid incorporated into PC/PS vesicles (overall statement) (factor Va [2]): significantly directly enhance inactivation

effect on factor Va inactivation by APC:protein S, glycolipid incorporated into PC/PS vesicles (overall statement) (factor Va [2]): much weaker effect
Compound: globotetraosylceramide [Gb4Cer]

enhancement of factor Va inactivation by APC/protein S (factor Va [2]; [7]): enhanced much more
Compound: globotriaosylceramide [Gb3Cer]
anticoagulant response of plasma to APC:protein S (clotting time prolongation, modified PT assay) (APC:protein S [1]): activity very similar to GlcCer; also recorded: approximately equally active; also recorded: enhanced
enhancement of factor Va inactivation by APC/protein S (factor Va [2]; [5]): enhanced inactivation of factor Va significantly even at 1 μg/ml
effect on factor Va inactivation by APC:protein S, glycolipid incorporated into PC/PS vesicles (overall statement) (factor Va [2]): significantly directly enhance inactivation

enhancement of factor Va inactivation by APC/protein S (factor Va [2]; [5]): little enhancement effect
factor Va inactivation reached (factor Va [2]; [7]): up to 60%
concentration from which the enhancement effect was observed (factor Va [2]; 5 and 10% GlcCer in PC/PS vesicle): ≥ 1 µg/mL
factor Va inactivation reached (factor Va [2]; [6]): up to 60%
Compound: glucosylceramide [GlcCer]
clotting time prolongation, modified PT assay (APC:protein S [1]; APC alone added without protein S): much less clotting time prolongation
anticoagulant response of plasma to APC:protein S (clotting time prolongation, modified PT assay) (APC:protein S [1]): dose-dependent marked prolongation; also recorded: dose-dependently enhances the anticoagulant response; also recorded: dose-dependently enhanced this anticoagulant response; also recorded: very active
effect on clotting times, modified PT assay (APC:protein S [1]; protein S alone added in the absence of APC, data not shown): no effect on clotting times
effect on baseline clotting times (APC:protein S [1]): without affecting baseline clotting time
clotting time prolongation in factor Xa-1-stage assays (APC:protein S [3]): clotting time prolongation in the presence but not absence of APC:protein S
inactivation of purified factor Va by APC:protein S (overall statement) (factor Va [4]): directly enhanced inactivation of purified factor Va; also recorded: enhances factor Va inactivation
enhancement of factor Va inactivation by APC/protein S (factor Va [2]; [7]): enhanced inactivation of factor Va much more
enhancement of factor Va inactivation by APC/protein S (factor Va [2]; [6]): enhanced inactivation of factor Va much more
effect on factor Va inactivation by APC:protein S, glycolipid incorporated into PC/PS vesicles (overall statement) (factor Va [2]): significantly directly enhance inactivation
